# Experimental data: patent US12653809B2, “Urea, amide, and substituted heteroaryl compounds for CBL-B inhibition” (Nurix Therapeutics, Inc., priority 2019, dated 2026)
# Like-named read-outs stand apart in the source and are kept apart here.
# Molecular target: T1, Cbl-b (truncated variant, UniProt number Q13191) (Homo sapiens, UniProt Q13191)
# T1 construct: made in house
# Assay: Cbl-b activity assay (TR-FRET, interaction of Cbl-b with UbcH5B-Ub)
# Type: biochemical
# Source text: As described in Biological Example 1A, a Cbl-b activity assay (Cbl-b inhibition assay) used to measure the IC50 values for Cbl-b inhibition uses a mixture comprising candidate compound, Cbl-b (truncated, with an Avitag, and biotinylated), a fluorescently-labeled E2 enzyme UbcH5B labelled with ubiquitin conjugated to BODIPY-fluorescein (UbcH5B-Ub), streptavidin-terbium, and assay buffer. In one embodiment, the Cbl-b activity assay (Cbl-b inhibition assay) used to measure IC50 for inhibition of Cbl-b uses the conditions described in Biological Example 1A with 12 nM Cbl-b. […] In another embodiment, the Cbl-b activity assay (Cbl-b inhibition assay) used to measure IC50 for inhibition of Cbl-b uses the conditions described in Biological Example 1B, with candidate compound, 0.125 nM Cbl-b (truncated, with an avitag, and biotinylated), fluorescently labelled inhibitor probe, and assay buffer. Displacement of the inhibitor probe indicates Cbl-b activity.
# Candidate compounds isolated from screening assays were evaluated for their ability to bind and inhibit Cbl-b, an E3 ubiquitin-protein ligase.
# The ability of candidate compounds to inhibit Cbl-b activity was measured by monitoring the interaction of Cbl-b with UbcH5B-Ub in the presence of the candidate compound. A truncated variant of Cbl-b (UniProt number Q13191; SEQ ID NO:1) containing an Avitag at its N-terminus was co-expressed with BirA biotin ligase and purified using a standard protocol (see Dou et al., Nature Structural and Molecular Biology 8: 982-987, 2013; Avidity LLC).
# Fluorescently labeled UbcH5B-Ub was prepared by conjugating ubiquitin (Ub), labeled at its N-terminus with Bodipy-Fluorescein, to UbcH5B, an E2 enzyme, harboring a cysteine to lysine mutation at position 85. This mutation is similar to a mutation that was previously reported (see Dou et al., Nature Structural and Molecular Biology 8: 982-987, 2013). Cbl-b activity assays were performed in a 384-well plate at room temperature in a 10 μL reaction volume by pre-incubating 12 nM Cbl-b (final concentration) in an assay buffer containing 50 mM HEPES pH 7.0, 100 mM NaCl, 0.01% Triton X-100, 0.01% BSA, and 1 mM DTT in the presence of a candidate compound in 1% DMSO (final concentration, High Conditions) for one hour. After incubation in the presence of the candidate compound, the plate was incubated for an additional 1.5 hours in the presence of 60 nM Src kinase with 1 mM ATP and 5 mM MgCl2 (final concentrations). Alternatively, compounds were tested as described above with assay buffer containing 50 mM NaCl instead of 100 mM NaCl and 30 nM Src kinase instead of 60 nM Src kinase (Low Conditions). Src kinase was prepared as previously described (see Kobashigawa et al., Proc Natl Acad Sci USA, 108: 20579-20584, 2011). […] The plate was incubated for one hour. Following the one hour incubation, the plates were read for TR-FRET signal at 520/620 nm using Envision plate reader (Perkin Elmer). The presence of a FRET signal that indicated Cbl-b was not inhibited by the compound candidate. The absence of a FRET signal indicated Cbl-b was inhibited by the compound candidate and was therefore a Cbl-b inhibitor.
# The resulting data for the Cbl-b activity assays were analyzed using standard methods to report the IC50 values of the tested compounds (Tables 3-4). The resulting data for the Cbl-b binding assay was solvent corrected and double-referenced prior to analysis. All data were globally fit to a steady-state affinity and kinetic binding model where applicable. Compounds were ranked into bins A through D as follows for IC50: A indicates <0.1 μM, B indicates 0.1 μM≤IC50<1 μM, C indicates 1 μM≤IC50<5 μM, and D indicates 5 μM≤IC50.
# [1] = Biological Example 1A, low or high conditions not stated, read-out: IC50 values in the Cbl-b inhibition assay of Biological Example 1A
# [2] = high conditions: 100 mM NaCl, 60 nM Src kinase, 12 nM Cbl-b, read-out: Cbl-b activity IC50
# T1 sequence (Q13191 36-427): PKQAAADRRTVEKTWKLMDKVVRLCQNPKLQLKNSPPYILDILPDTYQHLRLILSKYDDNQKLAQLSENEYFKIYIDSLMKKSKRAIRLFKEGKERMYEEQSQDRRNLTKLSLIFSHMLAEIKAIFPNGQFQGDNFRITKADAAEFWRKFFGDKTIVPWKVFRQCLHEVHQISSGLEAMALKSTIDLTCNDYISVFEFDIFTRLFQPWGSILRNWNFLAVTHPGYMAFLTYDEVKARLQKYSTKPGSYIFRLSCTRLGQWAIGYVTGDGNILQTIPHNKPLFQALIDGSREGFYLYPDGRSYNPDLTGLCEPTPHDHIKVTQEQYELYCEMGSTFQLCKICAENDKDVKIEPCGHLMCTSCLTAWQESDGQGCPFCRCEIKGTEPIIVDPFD
IC50 [1] [µM],IC50 [2] [µM],SMILES
≥ 5,≥ 5,"Cc1cccc(NC(=O)c2cccc(C3(Cc4nncn4C)COC3)c2)n1 [Example 38, 3-(3-((4-methyl-4H-1,2,4-triazol-3-yl)methyl)oxetan-3-yl)-N-(6-methylpyridin-2-yl)benzamide]"
1 to 5,1 to 5,"Cc1cnnc(NC(=O)Nc2cccc([C@H](C)Sc3nncn3C)c2)c1 [Example 39, (S)-1-(3-(1-((4-methyl-4H-1,2,4-triazol-3-yl)thio)ethyl)phenyl)-3-(5-methylpyridazin-3-yl)urea]"
1 to 5,1 to 5,"C[C@H](Sc1nncn1C)c1cccc(NC(=O)N2CC3CCCC3C2)c1 (stereo partly drawn) [Example 40, N-(3-((S)-1-((4-methyl-4H-1,2,4-triazol-3-yl)thio)ethyl)phenyl)hexahydrocyclopenta[c]pyrrole-2(1H)-carboxamide]"
,≥ 5,"CC1CCN(C(=O)Nc2cccc([C@H](C)Sc3nncn3C)c2)C1 (stereo partly drawn) [Example 41, 3-methyl-N-(3-((S)-1-((4-methyl-4H-1,2,4-triazol-3-yl)thio)ethyl)phenyl)pyrrolidine-1-carboxamide]"
,≥ 5,"CC1CN(C(=O)Nc2cccc([C@H](C)Sc3nncn3C)c2)CC(C)O1 (stereo partly drawn) [Example 42, 2,6-dimethyl-N-(3-((S)-1-((4-methyl-4H-1,2,4-triazol-3-yl)thio)ethyl)phenyl)morpholine-4-carboxamide]"
,≥ 5,"C[C@H](Sc1nncn1C)c1cccc(NC(=O)N2CCOC3(CCC3)C2)c1 [Example 43, (S)—N-(3-(1-((4-methyl-4H-1,2,4-triazol-3-yl)thio)ethyl)phenyl)-5-oxa-8-azaspiro[3.5]nonane-8-carboxamide]"
,≥ 5,"C[C@H](Sc1nncn1C)c1cccc(NC(=O)N2CCn3nccc3C2)c1 [Example 44, (S)—N-(3-(1-((4-methyl-4H-1,2,4-triazol-3-yl)thio)ethyl)phenyl)-6,7-dihydropyrazolo[1,5-a]pyrazine-5(4H)-carboxamide]"
0.1 to 1,0.1 to 1,"C[C@H](Sc1nncn1C)c1cccc(NC(=O)N2Cc3cccc(O)c3C2)c1 [Example 45, (S)-4-hydroxy-N-(3-(1-((4-methyl-4H-1,2,4-triazol-3-yl)thio)ethyl)phenyl)isoindoline-2-carboxamide]"
1 to 5,1 to 5,"C[C@H](Sc1nncn1C)c1cccc(NC(=O)N2Cc3cnn(C)c3C2)c1 [Example 46, (S)-1-methyl-N-(3-(1-((4-methyl-4H-1,2,4-triazol-3-yl)thio)ethyl)phenyl)-4,6-dihydropyrrolo[3,4-c]pyrazole-5(1H)-carboxamide]"
,≥ 5,"C[C@H](Sc1nncn1C)c1cccc(NC(=O)N2CCC(C(F)F)C2)c1 (stereo partly drawn) [Example 47, 3-(difluoromethyl)-N-(3-((S)-1-((4-methyl-4H-1,2,4-triazol-3-yl)thio)ethyl)phenyl)pyrrolidine-1-carboxamide]"
,≥ 5,"C[C@H](Sc1nncn1C)c1cccc(NC(=O)N2CCOC3(CC3)C2)c1 [Example 48, (S)—N-(3-(1-((4-methyl-4H-1,2,4-triazol-3-yl)thio)ethyl)phenyl)-4-oxa-7-azaspiro[2.5]octane-7-carboxamide]"
,≥ 5,"C[C@H](Sc1nncn1C)c1cccc(NC(=O)N(C)C2CCC2)c1 [Example 49, (S)-1-cyclobutyl-1-methyl-3-(3-(1-((4-methyl-4H-1,2,4-triazol-3-yl)thio)ethyl)phenyl)urea]"
1 to 5,1 to 5,"CNC(=O)C1(C(F)(F)F)CCN(C(=O)Nc2cccc([C@H](C)Sc3nncn3C)c2)C1 (stereo partly drawn) [Example 50, N^3-methyl-N^1-(3-((S)-1-((4-methyl-4H-1,2,4-triazol-3-yl)thio)ethyl)phenyl)-3-(trifluoromethyl)pyrrolidine-1,3-dicarboxamide]"
,≥ 5,"CC(C)C1CN(C(=O)Nc2cccc([C@H](C)Sc3nncn3C)c2)CCO1 (stereo partly drawn) [Example 51, 2-isopropyl-N-(3-((S)-1-((4-methyl-4H-1,2,4-triazol-3-yl)thio)ethyl)phenyl)morpholine-4-carboxamide]"
,≥ 5,"C[C@H](Sc1nncn1C)c1cccc(NC(=O)N2CC(OC(F)(F)F)C2)c1 [Example 52, (S)—N-(3-(1-((4-methyl-4H-1,2,4-triazol-3-yl)thio)ethyl)phenyl)-3-(trifluoromethoxy)azetidine-1-carboxamide]"
,≥ 5,"C[C@H](Sc1nncn1C)c1cccc(NC(=O)N2CC(c3cnn(C)c3)C(C)(C)C2)c1 (stereo partly drawn) [Example 53, 3,3-dimethyl-4-(1-methyl-1H-pyrazol-4-yl)-N-(3-((S)-1-((4-methyl-4H-1,2,4-triazol-3-yl)thio)ethyl)phenyl)pyrrolidine-1-carboxamide]"
,≥ 5,"CC1CN(C(=O)Nc2cccc([C@H](C)Sc3nncn3C)c2)CC1CO (stereo partly drawn) [Example 54, 3-(hydroxymethyl)-4-methyl-N-(3-((S)-1-((4-methyl-4H-1,2,4-triazol-3-yl)thio)ethyl)phenyl)pyrrolidine-1-carboxamide]"
,1 to 5,"Cc1ccc(-c2cc(-c3cccc([C@H](C)Sc4nncn4C)c3)on2)cc1 [Example 55, (S)-5-(3-(1-(4-methyl-4H-1,2,4-triazol-3-ylthio)ethyl)phenyl)-3-p-tolylisoxazole]"
,1 to 5,"Cc1cccc(-c2cc(-c3cccc([C@H](C)Sc4nncn4C)c3)on2)c1 [Example 56, 4-methyl-3-[[(1S)-1-[3-[3-(3-methylphenyl)-1,2-oxazol-5-yl]phenyl]ethyl]sulfanyl]-4H-1,2,4-triazole]"
,1 to 5,"C[C@H](Sc1nncn1C)c1cccc(-c2cc(-c3ccc(Cl)cc3)no2)c1 [Example 57, (S)-3-(4-chlorophenyl)-5-(3-(1-((4-methyl-4H-1,2,4-triazol-3-yl)thio)ethyl)phenyl)isoxazole]"
,1 to 5,"C[C@H](Sc1nncn1C)c1cccc(-c2cc(-c3cccc(Cl)c3)no2)c1 [Example 58, 3-[[(1S)-1-[3-[3-(3-chlorophenyl)-1,2-oxazol-5-yl]phenyl]ethyl]sulfanyl]-4-methyl-4H-1,2,4-triazole]"
,1 to 5,"COc1ccc(-c2cc(-c3cccc([C@H](C)Sc4nncn4C)c3)on2)cc1 [Example 59, (S)-3-(4-methoxyphenyl)-5-(3-(1-((4-methyl-4H-1,2,4-triazol-3-yl)thio)ethyl)phenyl)isoxazole]"
,1 to 5,"COc1cccc(-c2cc(-c3cccc([C@H](C)Sc4nncn4C)c3)on2)c1 [Example 60, (S)-3-(3-methoxyphenyl)-5-(3-(1-((4-methyl-4H-1,2,4-triazol-3-yl)thio)ethyl)phenyl)isoxazole]"
,1 to 5,"C[C@H](Sc1nncn1C)c1cccc(-c2cc(-c3ccc(C#N)cc3)no2)c1 [Example 61, (S)-4-(5-(3-(1-(4-methyl-4H-1,2,4-triazol-3-ylthio)ethyl)phenyl)isoxazol-3-yl)benzonitrile]"
,1 to 5,"C[C@H](Sc1nncn1C)c1cccc(-c2cc(-c3cccc(C#N)c3)no2)c1 [Example 62, (S)-3-(5-(3-(1-(4-methyl-4H-1,2,4-triazol-3-ylthio)ethyl)phenyl)isoxazol-3-yl)benzonitrile]"
≥ 5,≥ 5,"C[C@H](Sc1nncn1C)c1cccc(-c2cc(-c3ccc(C(=O)O)cc3)no2)c1 [Example 63, 4-(5-{3-[(1S)-1-[(4-methyl-4H-1,2,4-triazol-3-yl)sulfanyl]ethyl]phenyl}-1,2-oxazol-3-yl)benzoic acid]"
